What follows are compounds tested on SARS-CoV-2-NLuc in A549-hACE2 cells (assay: microbe, parasite or virus in culture). Settings: Severe acute respiratory syndrome coronavirus 2, 48 h, read-out: MPro EC50.
Type: cell-based
With O=C1C[C@H](n2c(=O)[nH]c3cc(-c4ccccc4Cl)sc3c2=O)CCCN1 (single isomer, unassigned) [Example 21] the EC50 was 22.3 nM.
For O=C1C[C@@H](n2c(=O)[nH]c3cc(-c4ccccc4Cl)sc3c2=O)CCCN1 (single isomer, unassigned) [Example 22], the EC50 was 155 nM.

Same assay, conditions: Severe acute respiratory syndrome coronavirus 2, 48 h; read-out: MPro EC50
Work on COc1cc(-c2cc3c(s2)c(=O)n([C@H]2CCCNC(=O)C2)c(=O)n3C)c(Cl)cc1F [Example 33, (S)-6-(2-chloro-4-fluoro-5-methoxyphenyl)-1-methyl-3-(2-oxoazepan-4-yl)thieno[3,2-d]pyrimidine-2,4(1H,3H)-dione] yielded an EC50 of 747 nM.
With COc1ccc(Cl)c(-c2cc3[nH]c(=O)n(C4CCCNC(=O)C4)c(=O)c3s2)c1 (centres unmarked) [Example 20, 6-(2-chloro-5-methoxyphenyl)-3-(2-oxoazepan-4-yl)thieno[3,2-d]pyrimidine-2,4(1H,3H)-dione] the EC50 was 56.4 nM.
COc1cc(Cl)c(-c2cc3[nH]c(=O)n([C@H]4CCNC(=O)C4)c(=O)c3s2)cc1OC [Example 18, (S)-6-(2-chloro-4,5-dimethoxyphenyl)-3-(2-oxopiperidin-4-yl)thieno[3,2-d]pyrimidine-2,4(1H,3H)-dione] was tested, and the EC50 was 1150 nM.
Compound COc1cnc(Cl)c(-c2cc3[nH]c(=O)n(C4CCNC(=O)C4)c(=O)c3s2)c1 (centres unmarked) [Example 15, 6-(2-chloro-5-methoxypyridin-3-yl)-3-(2-oxopiperidin-4-yl)thieno[3,2-d]pyrimidine-2,4(1H,3H)-dione] has an EC50 of 18600 nM.
Work on COc1cc(-c2cc3[nH]c(=O)n(C4CCCCNC(=O)C4)c(=O)c3s2)c(Cl)cc1F (centres unmarked) [Example 58, 6-(2-chloro-4-fluoro-5-methoxyphenyl)-3-(2-oxoazocan-4-yl)thieno[3,2-d]pyrimidine-2,4(1H,3H)-dione] yielded an EC50 of 723 nM.
Work on O=C1C[C@H](n2c(=O)[nH]c3cc(-c4ccccc4Cl)sc3c2=O)CN1 [Example 2, 6-(2-chlorophenyl)-3-[(3S)-5-oxopyrrolidin-3-yl]-1H-thieno[3,2-d]pyrimidine-2,4-dione] yielded an EC50 of 35500 nM.
N#CCCn1c(=O)n([C@@H]2CCCNC(=O)C2)c(=O)c2sc(-c3ccccc3Cl)cc21 [Example 51, (R)-3-(6-(2-chlorophenyl)-2,4-dioxo-3-(2-oxoazepan-4-yl)-3,4-dihydrothieno[3,2-d]pyrimidin-1(2H)-yl)propanenitrile] gave an EC50 of 98 nM.
In the case of COc1ccc(C#N)c(-c2cc3[nH]c(=O)n(C4CCCNC(=O)C4)c(=O)c3s2)c1 (centres unmarked) [Example 25, 2-(2,4-dioxo-3-(2-oxoazepan-4-yl)-1,2,3,4-tetrahydrothieno[3,2-d]pyrimidin-6-yl)-4-methoxybenzonitrile], the EC50 is reported as 432 nM.
In the case of COc1cc(-c2cc3[nH]c(=O)n([C@@H]4CCCNC(=O)C4)c(=O)c3s2)c(C)cc1F [Example 45, (R)-6-(4-fluoro-5-methoxy-2-methylphenyl)-3-(2-oxoazepan-4-yl)thieno[3,2-d]pyrimidine-2,4(1H,3H)-dione], the EC50 is reported as 137 nM.
O=C1C[C@@H](n2c(=O)[nH]c3cc(-c4ccccc4Cl)sc3c2=O)CN1 [Example 3, 6-(2-chlorophenyl)-3-[(3R)-5-oxopyrrolidin-3-yl]-1H-thieno[3,2-d]pyrimidine-2,4-dione] showed an EC50 of 6830 nM.
Compound COc1cc(-c2cc3[nH]c(=O)n(C4CC(=O)NCC(C)(C)C4)c(=O)c3s2)c(Cl)cc1F (centres unmarked) [Example 55, 6-(2-chloro-4-fluoro-5-methoxyphenyl)-3-(6,6-dimethyl-2-oxoazepan-4-yl)thieno[3,2-d]pyrimidine-2,4(1H,3H)-dione] has an EC50 of 102 nM.
With COc1cc(-c2cc3c(s2)c(=O)n([C@@H]2CCCNC(=O)C2)c(=O)n3CC#N)c(Cl)cc1F [Example 34, (R)-2-(6-(2-chloro-4-fluoro-5-methoxyphenyl)-2,4-dioxo-3-(2-oxoazepan-4-yl)-3,4-dihydrothieno[3,2-d]pyrimidin-1(2H)-yl)acetonitrile] the EC50 was 3.03 nM.
With COc1cnc(Cl)c(-c2cc3c(s2)c(=O)n([C@@H]2CCCNC(=O)C2)c(=O)n3CCC#N)c1 [Example 50, (R)-3-(6-(2-chloro-5-methoxypyridin-3-yl)-2,4-dioxo-3-(2-oxoazepan-4-yl)-3,4-dihydrothieno[3,2-d]pyrimidin-1(2H)-yl)propanenitrile] the EC50 was > 1000 nM.
Work on COc1ccc(C#N)c(-c2cc3[nH]c(=O)n([C@H]4CCNC(=O)C4)c(=O)c3s2)c1 [Example 26, (S)-2-(2,4-dioxo-3-(2-oxopiperidin-4-yl)-1,2,3,4-tetrahydrothieno[3,2-d]pyrimidin-6-yl)-4-methoxybenzonitrile] yielded an EC50 of 2120 nM.
COc1ccc(Cl)c(-c2cc3[nH]c(=O)n([C@H]4CCNC(=O)C4)c(=O)c3s2)c1 [Example 17, (S)-6-(2-chloro-5-methoxyphenyl)-3-(2-oxopiperidin-4-yl)thieno[3,2-d]pyrimidine-2,4(1H,3H)-dione] showed an EC50 of 84.6 nM.
COc1cc(-c2cc3[nH]c(=O)n([C@@H]4CC(=O)NC[C@@H](C)C4)c(=O)c3s2)c(Cl)cc1F (single isomer, unassigned) [Example 53] showed an EC50 of 34 nM.
In the case of COc1cc(-c2cc3[nH]c(=O)n([C@H]4CNC(=O)C4)c(=O)c3o2)c(Cl)cc1F [Example 57, 6-(2-chloro-4-fluoro-5-methoxy-phenyl)-3-[(3R)-5-oxopyrrolidin-3-yl]-1H-furo[3,2-d]pyrimidine-2,4-dione], the EC50 is reported as > 1000 nM.
For COc1cc(-c2cc3c(s2)c(=O)n([C@@H]2CCCNC(=O)C2)c(=O)n3CCNC(C)=O)c(Cl)cc1F [Example 37, (R)—N-(2-(6-(2-chloro-4-fluoro-5-methoxyphenyl)-2,4-dioxo-3-(2-oxoazepan-4-yl)-3,4-dihydrothieno[3,2-d]pyrimidin-1(2H)-yl)ethyl)acetamide], the EC50 was 170 nM.
With COc1cnc(Cl)c(-c2cc3[nH]c(=O)n([C@@H]4CCCNC(=O)C4)c(=O)c3s2)c1 [Example 44, (R)-6-(2-chloro-5-methoxypyridin-3-yl)-3-(2-oxoazepan-4-yl)thieno[3,2-d]pyrimidine-2,4(1H,3H)-dione] the EC50 was 433 nM.
Compound COc1ccc(Cl)c(-c2cc3c(s2)c(=O)n([C@@H]2CCCNC(=O)C2)c(=O)n3CC#N)c1 [Example 28, (R)-2-(6-(2-chloro-5-methoxyphenyl)-2,4-dioxo-3-(2-oxoazepan-4-yl)-3,4-dihydrothieno[3,2-d]pyrimidin-1(2H)-yl)acetonitrile] has an EC50 of 5.87 nM.
COc1cc(-c2cc3[nH]c(=O)n([C@@H]4CCCNC(=O)C4)c(=O)c3s2)c(C#N)cc1F [Example 46, (R)-2-(2,4-dioxo-3-(2-oxoazepan-4-yl)-1,2,3,4-tetrahydrothieno[3,2-d]pyrimidin-6-yl)-5-fluoro-4-methoxybenzonitrile] was tested, and the EC50 was 771 nM.
Compound COc1cc(-c2cc3[nH]c(=O)n([C@@H]4CCCNC(=O)C4)c(=O)c3s2)c(Cl)cc1F [Example 30, (R)-6-(2-chloro-4-fluoro-5-methoxyphenyl)-3-(2-oxoazepan-4-yl)thieno[3,2-d]pyrimidine-2,4(1H,3H)-dione] has an EC50 of 7.73 nM.
O=C1CC(n2c(=O)[nH]c3cc(-c4ccccc4Cl)sc3c2=O)CCCN1 (centres unmarked) [Example 8, 6-(2-chlorophenyl)-3-(2-oxoazepan-4-yl)thieno[3,2-d]pyrimidine-2,4(1H,3H)-dione] was tested, and the EC50 was 61.9 nM.
O=C1CC(n2c(=O)[nH]c3cc(-c4ccccc4Cl)sc3c2=O)CCN1 (centres unmarked) [Example 1, 6-(2-chlorophenyl)-3-(2-oxopiperidin-4-yl)thieno[3,2-d]pyrimidine-2,4(1H,311)-dione] gave an EC50 of 255 nM.
COc1cc(-c2cc3[nH]c(=O)n([C@H]4CCNC(=O)C4)c(=O)c3s2)c(Cl)cc1F [Example 16, (S)-6-(2-chloro-4-fluoro-5-methoxyphenyl)-3-(2-oxopiperidin-4-yl)thieno[3,2-d]pyrimidine-2,4(1H,3H)-dione] showed an EC50 of 222 nM.
Cc1cc(-c2cccc(Cl)c2-c2cc3[nH]c(=O)n(C4CCNC(=O)C4)c(=O)c3s2)cn2ncnc12 (centres unmarked) [Example 11, 6-(2-chloro-6-(8-methyl-[1,2,4]triazolo[1,5-a]pyridin-6-yl)phenyl)-3-(2-oxopiperidin-4-yl)thieno[3,2-d]pyrimidine-2,4(1H,3H)-dione] gave an EC50 of 1210 nM.
In the case of COc1cc(-c2cc3c(s2)c(=O)n([C@@H]2CCCNC(=O)C2)c(=O)n3CC2(C#N)CC2)c(Cl)cc1F [Example 36, (R)-1-((6-(2-chloro-4-fluoro-5-methoxyphenyl)-2,4-dioxo-3-(2-oxoazepan-4-yl)-3,4-dihydrothieno[3,2-d]pyrimidin-1(2H)-yl)methyl)cyclopropane-1-carbonitrile], the EC50 is reported as < 4.07 nM.
COc1cc(-c2cc3c(s2)c(=O)n([C@@H]2CCCNC(=O)C2)c(=O)n3C)c(Cl)cc1F [Example 32, (R)-6-(2-chloro-4-fluoro-5-methoxyphenyl)-1-methyl-3-(2-oxoazepan-4-yl)thieno[3,2-d]pyrimidine-2,4(1H,3H)-dione] was tested, and the EC50 was 15.6 nM.
COc1cc(-c2cc3[nH]c(=O)n([C@@H]4CCCNC(=O)C4)c(=O)c3o2)c(Cl)cc1F [Example 59, (R)-6-(2-chloro-4-fluoro-5-methoxyphenyl)-3-(2-oxoazepan-4-yl)furo[3,2-d]pyrimidine-2,4(1H,3H)-dione] gave an EC50 of 651 nM.
COc1ccc(Cl)c(-c2ccc3c(=O)n(C4CCCNC(=O)C4)c(=O)[nH]c3c2)c1 (centres unmarked) [Example 27, 7-(2-chloro-5-methoxyphenyl)-3-(2-oxoazepan-4-yl)quinazoline-2,4(1H,3H)-dione] was tested, and the EC50 was 646 nM.
In the case of COc1cc(-c2cc3[nH]c(=O)n([C@H]4CCCNC(=O)C4)c(=O)c3s2)c(Cl)cc1F [Example 31, (S)-6-(2-chloro-4-fluoro-5-methoxyphenyl)-3-(2-oxoazepan-4-yl)thieno[3,2-d]pyrimidine-2,4(1H,3H)-dione], the EC50 is reported as 51.2 nM.
For COc1cc(-c2cc3c(s2)c(=O)n([C@@H]2CCCNC(=O)C2)c(=O)n3CCC#N)c(C#N)cc1F [Example 49, (R)-2-(1-(2-cyanoethyl)-2,4-dioxo-3-(2-oxoazepan-4-yl)-1,2,3,4-tetrahydrothieno[3,2-d]pyrimidin-6-yl)-5-fluoro-4-methoxybenzonitrile], the EC50 was > 1000 nM.
Compound O=C1C[C@H](n2c(=O)[nH]c3cc(-c4ccccc4Cl)ccc3c2=O)CCN1 [Example 6, (R)-7-(2-chlorophenyl)-3-(2-oxopiperidin-4-yl)quinazoline-2,4(1H,3H)-dione] has an EC50 of 29900 nM.

Source: patent US20250276979A1, “SARS-COV2 MAIN PROTEASE INHIBITORS” (Gilead Sciences, Inc., priority 2024, published 2025)
